One block for each molecule: values may come before it.
Experiments:
[1] = target: T1, EHD1 EH domain-containing protein 1 (Homo sapiens, UniProt Q9H4M9); assay: competitive isoTOP-ABPP; format: binding
T1 construct: endogenous in cells; host or cells: MDA-MB-231 (soluble fraction of lysate)
T1 sequence (Q9H4M9 1-534): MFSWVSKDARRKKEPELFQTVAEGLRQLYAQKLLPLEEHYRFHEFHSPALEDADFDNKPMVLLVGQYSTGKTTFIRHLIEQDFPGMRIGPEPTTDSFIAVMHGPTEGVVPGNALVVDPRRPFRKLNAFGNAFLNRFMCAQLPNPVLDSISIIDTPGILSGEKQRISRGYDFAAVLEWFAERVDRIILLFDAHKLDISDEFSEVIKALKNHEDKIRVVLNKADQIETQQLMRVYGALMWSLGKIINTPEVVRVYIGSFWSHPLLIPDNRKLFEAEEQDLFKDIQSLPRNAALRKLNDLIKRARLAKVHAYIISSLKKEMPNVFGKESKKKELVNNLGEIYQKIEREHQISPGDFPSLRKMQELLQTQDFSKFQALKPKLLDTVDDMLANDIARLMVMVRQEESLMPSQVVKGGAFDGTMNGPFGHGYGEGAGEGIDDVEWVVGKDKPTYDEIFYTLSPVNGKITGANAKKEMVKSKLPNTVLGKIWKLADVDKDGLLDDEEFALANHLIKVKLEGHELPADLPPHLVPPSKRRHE
Procedure, shortened: (§1)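 Competition format: fragment (50 μM activated ester, 100 μM guanidinylating agent) versus vehicle in lysate, then lysine probe STP-alkyne at 0.1 mM for 1 h. Quantitation by light/heavy TEV-tag MS1 peak areas, reported as R.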

[2] = target: T2, OAT Ornithine aminotransferase, mitochondrial (Homo sapiens, UniProt P04181); assay: competitive isoTOP-ABPP; format: binding; conditions: for isoTOP-ABPP reactivity ratio at lysine P04181_K66: 50 uM, 231 sol, in vitro
T2 construct: isoTOP-ABPP experiments performed in cell lysates (in vitro); endogenous in cells; host or cells: MDA-MB-231 soluble lysate
T2 sequence (P04181 26-439): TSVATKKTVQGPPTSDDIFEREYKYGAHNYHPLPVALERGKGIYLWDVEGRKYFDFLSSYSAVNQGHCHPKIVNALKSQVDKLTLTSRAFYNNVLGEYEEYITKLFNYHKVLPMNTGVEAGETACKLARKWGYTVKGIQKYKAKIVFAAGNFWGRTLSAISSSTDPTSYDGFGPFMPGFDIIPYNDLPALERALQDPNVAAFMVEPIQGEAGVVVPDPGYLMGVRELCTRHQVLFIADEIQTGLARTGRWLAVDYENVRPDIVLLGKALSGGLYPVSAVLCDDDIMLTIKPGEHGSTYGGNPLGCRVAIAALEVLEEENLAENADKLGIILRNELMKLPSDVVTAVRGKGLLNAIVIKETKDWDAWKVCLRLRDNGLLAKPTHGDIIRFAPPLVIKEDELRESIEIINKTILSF
Procedure, shortened: as §1

- R value (DMSO/fragment) for probe 1 labeling ([1]; Q9H4M9_K511, 50 uM, 231 sol, in vitro): 0.8
Structure (SMILES): O=C(CCc1cn(-c2ccccc2)nc1-c1ccccc1)Oc1c(F)c(F)c(F)c(F)c1F [fragment 19, Pentafluorophenyl 3-(1,3-diphenyl-1H-pyrazol-4-yl)propanoate]

- isoTOP-ABPP ratio, lysine Q9H4M9_K511 ([1]; 50 uM_231_sol_in vitro): 20.0
Structure (SMILES): O=C(Oc1c(F)c(F)c(C(F)(F)F)c(F)c1F)c1cc(C(F)(F)F)cc(C(F)(F)F)c1 [fragment 47, 2,3,5,6-Tetrafluoro-4-(trifluoromethyl)phenyl 3,5-bis(trifluoromethyl)benzoate]

Structure (SMILES): Cn1cc(CC(=O)Oc2ccc([N+](=O)[O-])cc2[N+](=O)[O-])c2ccccc21 [fragment 32, 2,4-Dinitrophenyl 2-(1-methyl-1H-indol-3-yl)acetate]
- isoTOP-ABPP reactivity ratio at lysine Q9H4M9_K511 ([1]; 50 uM, 231 sol, in vitro): 1.2
- isoTOP-ABPP reactivity ratio at lysine P04181_K66 [2]: 9.3

- isoTOP-ABPP reactivity ratio at lysine P04181_K66 [2]: 0.6
Structure (SMILES): O=C(Oc1c(F)c(F)c(F)c(F)c1F)C1CCN(C(=O)OCc2ccccc2)CC1 [fragment 24, 1-Benzyl 4-(pentafluorophenyl) piperidine-1,4-dicarboxylate]

- isoTOP-ABPP ratio, lysine P04181_K66 ([2]; 100 uM_231_sol_in vitro): 9.9
Structure (SMILES): CC(C)(C)OC(=O)N=C(NC(=O)OC(C)(C)C)n1cccn1 [fragment 50, reference compound]

Structure (SMILES): O=C(Oc1ccc([N+](=O)[O-])cc1[N+](=O)[O-])C(c1ccccc1)c1ccccc1 [fragment 30, 2,4-Dinitrophenyl 2,2-diphenylacetate]
- isoTOP-ABPP reactivity ratio at lysine Q9H4M9_K511 ([1]; 50 uM, 231 sol, in vitro): 0.9

Structure (SMILES): COc1cc(CCC(=O)Oc2ccc([N+](=O)[O-])cc2[N+](=O)[O-])cc(OC)c1OC [fragment 33, 2,4-Dinitrophenyl 3-(3,4,5-trimethoxyphenyl)propanoate]
- isoTOP-ABPP reactivity ratio at lysine P04181_K66 [2]: 1.0

Structure (SMILES): CC(=O)Oc1ccc([N+](=O)[O-])cc1[N+](=O)[O-] [fragment 43, 2,4-Dinitrophenyl acetate]
- isoTOP-ABPP ratio (R) at liganded lysine Q9H4M9_K511 ([1]; 50 uM, in vitro, sol, 231): 20.0

Reference: patent US20210255193A1, “LYSINE REACTIVE PROBES AND USES THEREOF” (The Scripps Research Institute, priority 2017, published 2021)
